# Measured values reported in EP4729053A1, “SOLID DISPERSION OF P2X4 INHIBITOR, AND PREPARATION METHOD THEREFOR AND USE THEREOF” (Wuhan Createrna Science and Technology Co.,Ltd., priority 2023, dated 2024).
# How the values were obtained:
# [1] = Solubilization test of compound 1 with surfactants in FaSSIF; type: physicochemical; details: for Concentration of API in vehicle: FaSSIF (pH 6.5), 37°C
# Method: 50 mg of compound 1 was weighed into 5 mL of FaSSIF medium containing 5 mg of different surfactants (target concentration of API (compound 1): 10 mg/mL). The mixture was shaken at 500 rpm and 37°C. 0.5 mL each of the suspension samples was taken at 0.5 hours, 1 hour, 2 hours, and 4 hours, respectively, centrifuged at 14,000 rpm for 5 minutes, and the supernatant was diluted and analyzed by HPLC. Table 1: Solubility results of compound 1 in FaSSIF containing 10% of surfactant by weight
# [2] = Pharmacokinetic study in rats, intragastric administration; type: in vivo; details: rat, plasma, po, Male SD rats, i.g., vehicle 5% Solutol
# Method: SPF-grade male SD rats weighing 160 to 320 g were divided into 2 groups, with 3 rats per group [Source: Beijing Vital River Laboratory Animal Technology Co., Ltd., Certificate No.: 1103242011040898].
# Formulation and dosing: According to the drug concentration and dosing requirements in Table 15 below, the API was accurately weighed and added to the required volume of 5% Solutol. The mixture was vortexed for 2 minutes, then sonicated for 10 minutes, and stirred for 1 hour before administration. Table 15: Formulation and dosing regimen for API pharmacokinetic study
# SPF-grade male SD rats weighing 160 to 320 g were divided into 6 groups, with 3 rats per group [Source: Beijing Vital River Laboratory Animal Technology Co., Ltd., Certificate No.: 110011210113195883 (male)].
# Formulation and dosing: 80 mg of the corresponding sample in the table below was accurately weighed, dispersed in the required volume of pure water, vortexed for 5 minutes, and administered intragastrically (i.g.). The experimental dosing was scaled proportionally based on animal body weight and dosing concentration.
# After administration to the SD rats in each group of Experimental Preparation 1 and Experimental Preparation 2, approximately 0.2 to 0.3 mL of blood samples were collected from the orbital venous plexus at 0.167, 0.5, 1, 2, 3, 4, 6, 8, 10, and 24 hours post-dosing, and transferred to an anticoagulant EP tube (containing 4 µL of EDTA-K2, 375 mg/mL), which was gently inverted three times, stored in an ice box (no more than 30 minutes), centrifuged at 3500 × g for 10 minutes at 4°C, and plasma supernatant was transferred to a labeled EP tube. Hemolysis was observed and recorded, followed by bioanalytical testing.
# Sample pretreatment: 40 µL of sample was mixed with 160 µL of acetonitrile containing 0.1% FA and 200 ng/mL mixed internal standard to precipitate proteins. The mixture was vortexed thoroughly and centrifuged at 13,000 rpm for 10 minutes at 4°C.
# 110 µL of the supernatant was transferred to another 96-well deep-well plate, followed by addition of 110 µL of a mixture of methanol and water (1:3, v:v) containing 0.1% FA. The mixture was shaken for 10 minutes and analyzed using an LC-MS/MS system. The system employed a Sciex Exion LC AD high-performance liquid chromatography system with an XBridge BEH C18 (2.1 × 50 mm, 2.5 µm) column for gradient elution and an AB Sciex Qtrap 4500 mass spectrometer for analysis. The mass spectrometer employed an electrospray ionization (ESI) source in positive ion mode to monitor Tolbutamide, with precursor ion to product ion transitions with mass-to-charge ratios (m/z) of 415.1→263.1 and 271.1→155, respectively.
# Data were analyzed using WinNonlin (version 5.2.1, Pharsight, Mountain View, CA) with a non-compartmental model to obtain PK parameters (Cmax, Tmax, T1/2, AUClast, etc.). Table 15: Pharmacokinetic data of some solid dispersions
smiles,measurement,setting,value
NS(=O)(=O)c1cc(NC(=O)Cc2ccccc2Cl)cc2nn(C(F)F)cc12 [compound 1],Concentration of API in vehicle,"[1]; Cremophor EL 5 mg, 0.5 h",1574.3 µg/mL
same,Concentration of API in vehicle,"[1]; Cremophor EL 5 mg, 1 h",1604.3 µg/mL
same,Concentration of API in vehicle,"[1]; Cremophor EL 5 mg, 2 h",1538.6 µg/mL
same,Concentration of API in vehicle,"[1]; Cremophor EL 5 mg, 4 h",1508.2 µg/mL
same,Concentration of API in vehicle,"[1]; Cremophor RH40 5 mg, 0.5 h",1583.3 µg/mL
same,Concentration of API in vehicle,"[1]; Cremophor RH40 5 mg, 1 h",1604.5 µg/mL
same,Concentration of API in vehicle,"[1]; Cremophor RH40 5 mg, 2 h",1567.0 µg/mL
same,Concentration of API in vehicle,"[1]; Cremophor RH40 5 mg, 4 h",1539.4 µg/mL
same,Concentration of API in vehicle,"[1]; Poloxamer 188 5 mg, 0.5 h",115.6 µg/mL
same,Concentration of API in vehicle,"[1]; Poloxamer 188 5 mg, 1 h",123.3 µg/mL
same,Concentration of API in vehicle,"[1]; Poloxamer 188 5 mg, 2 h",104.0 µg/mL
same,Concentration of API in vehicle,"[1]; Poloxamer 188 5 mg, 4 h",93.9 µg/mL
same,Concentration of API in vehicle,"[1]; Poloxamer 407 5 mg, 0.5 h",838.4 µg/mL
same,Concentration of API in vehicle,"[1]; Poloxamer 407 5 mg, 1 h",860.7 µg/mL
same,Concentration of API in vehicle,"[1]; Poloxamer 407 5 mg, 2 h",842.0 µg/mL
same,Concentration of API in vehicle,"[1]; Poloxamer 407 5 mg, 4 h",796.7 µg/mL
same,Concentration of API in vehicle,"[1]; SLS 5 mg, 0.5 h",614.0 µg/mL
same,Concentration of API in vehicle,"[1]; SLS 5 mg, 1 h",622.0 µg/mL
same,Concentration of API in vehicle,"[1]; SLS 5 mg, 2 h",639.0 µg/mL
same,Concentration of API in vehicle,"[1]; SLS 5 mg, 4 h",652.0 µg/mL
same,Concentration of API in vehicle,"[1]; Solutol HS15 5 mg, 0.5 h",1465.9 µg/mL
same,Concentration of API in vehicle,"[1]; Solutol HS15 5 mg, 1 h",1501.6 µg/mL
same,Concentration of API in vehicle,"[1]; Solutol HS15 5 mg, 2 h",1480.7 µg/mL
same,Concentration of API in vehicle,"[1]; Solutol HS15 5 mg, 4 h",1456.3 µg/mL
same,Concentration of API in vehicle,"[1]; Tween 80 5 mg, 0.5 h",899.3 µg/mL
same,Concentration of API in vehicle,"[1]; Tween 80 5 mg, 1 h",893.1 µg/mL
same,Concentration of API in vehicle,"[1]; Tween 80 5 mg, 2 h",888.5 µg/mL
same,Concentration of API in vehicle,"[1]; Tween 80 5 mg, 4 h",886.6 µg/mL
same,Concentration of API in vehicle,"[1]; VE-TPGS 5 mg, 0.5 h",2113.7 µg/mL
same,Concentration of API in vehicle,"[1]; VE-TPGS 5 mg, 1 h",2122.7 µg/mL
same,Concentration of API in vehicle,"[1]; VE-TPGS 5 mg, 2 h",2089.3 µg/mL
same,Concentration of API in vehicle,"[1]; VE-TPGS 5 mg, 4 h",2077.5 µg/mL
same,Concentration of API in vehicle,"[1]; no surfactant, 0.5 h",33.9 µg/mL
same,Concentration of API in vehicle,"[1]; no surfactant, 1 h",22.9 µg/mL
same,Concentration of API in vehicle,"[1]; no surfactant, 2 h",15.2 µg/mL
same,Concentration of API in vehicle,"[1]; no surfactant, 4 h",14.9 µg/mL
same,solubility of compound 1,"[1]; with surfactants SLS, Cremophor EL, Cremophor RH40, VE-TPGS, Tween 80, Poloxamer 407, and Solutol HS15",significantly improved
same,AUC(0-t),[2]; 30.00 mg/kg,10800 ng·h/mL
same,Cmax,[2]; 30.00 mg/kg,2760 ng/mL
same,Tmax,[2]; 30.00 mg/kg,40.2 min
same,half-life,[2]; 30.00 mg/kg,319 min
same,AUC(0-t),[2]; 300.00 mg/kg,14700 ng·h/mL
same,Cmax,[2]; 300.00 mg/kg,2360 ng/mL
same,Tmax,[2]; 300.00 mg/kg,60 min
same,half-life,[2]; 300.00 mg/kg,828 min
